The nature of data set [1]: Light emission spectra by Fast Spectral Scanning System (FSSS). It is filed as physicochemical. As to conditions: for emission spectrum peak: figure legends FIGS. 2A-2E, 3A-3J; for Emission Max: in 0.5 ml acetonitrile, Flashing Reagent #1 and #2, maximum could vary by 0-4 nm between determinations; for Range: spectral region with signal intensity of above 5% of peak height. On the procedure: The light emission spectra of LBAC's and the reference acridinium esters were determined by a Fast Spectral Scanning System (FSSS) of Photo Research (a division of Kollmorgen Corp) of Burbank, CA, U.S.A. The experiment was carried out in a dark room. Each sample was dissolved in HPLC grade acetonitrile at the concentration of 1 mg/ml or higher and diluted with the same solvent to obtain the sample solution in the concentration specified. A typical determination utilized 10 to 100 ug of each compound, with the exception of the angular benz[a]acridinium ester (2 mg), separately or mixed together in 0.5 ml acetonitrile contained in 13 x 100 mm borosilicate test tube. The tube was placed on a tube rack raised to a proper height. The FSSS optical head was placed in front of the tube at close distance and with its lens focused on the liquid in the tube. The sample solution was first treated with 0.35 ml of the Flashing Reagent #1 (Ciba Corning Diagnostics) containing 0.1 N HNO3 and 0.1% H2O2. […] The light which was generated instantaneously following the addition of the Reagent #2 was recorded by FSSS for 4 seconds except for 2-MeO-LEAE-Imidate which was recorded for 30 seconds starting from split second before the Reagent #2 was added.
Recorded emission spectra are shown in FIGS. 2A-2E, 3A-3J, and 4A-4D. FIGS. 2A-2E and 3A-3J show individual emission spectra of chemiluminescent compounds including an acridinium ring system and compounds including a benzacridinium ring system. […] The major portions of the original constituting spectra which remained unchanged were indeed non-overlapping. These important physical characteristics fulfill the prerequisite for two or more subclasses of chemiluminescent compounds to be utilized in test assays for detecting and/or quantitating at least two substances in a test sample, and particularly to multianalyte clinical diagnostic assays.

Data set [2] in a line: Kinetic study on light emission (time course up to 10 seconds). Type of data set: physicochemical. As to conditions: normalized to 10 seconds. The method, then:
A time course study over a period of up to 10 seconds was conducted to determine these percentages, by flashing the compounds and normalizing all the signals collected for different lengths of time to that of 10 seconds.

Consider `COc1ccc2c(C(=O)Oc3c(C)cc(C(=O)OCc4ccccc4)cc3C)c3ccccc3[n+](C)c2c1` [3-MeO-DMAE-Bz, (4-Benzyloxycarbonyl-2,6-dimethyl)phenyl 3-Methoxy-10-methyl-acridinium-9-carboxylate Fluorosulfonate, reference compound], for which, in data set [1], the emission spectrum peak entry is given as “≈ 422 nm”. Moreover, in data set [1], the “Emission Max” value was 422 nm. The Range in data set [1] is recorded as 395-520 nm. Further, the “Percent signal released over different lengths of time” value is reported as 26% in data set [2] (0.5 s); 49% in data set [2] (1.0 s); 57% in data set [2] (2.0 s); 70% in data set [2] (4.0 s); 80% in data set [2] (6.0 s); 100% in data set [2] (10.0 s).
For `Cc1cc(C(=O)OCc2ccccc2)cc(C)c1OC(=O)c1c2ccccc2[n+](C)c2ccc3ccccc3c12` [ABAC, (4-Benzyloxycarbonyl-2,6-dimethyl)phenyl 5-methyl-benz[a]acridinium-12-carboxylate methosulfate, reference compound], the emission spectrum peak entry in data set [1] is reported as “≈ 440 nm”. Further, the “Emission Max” value in data set [1] is 436-440 nm. Moreover, in data set [1], the Range is listed as 410-530 nm. Further, in data set [1] (versus acridinium esters), the “difference of the emission maxima” value is reported as 8-14 nm. Further, the “Percent signal released over different lengths of time” value in data set [2] (0.5 s) is on record as 3%; in data set [2] (1.0 s) it was 20%; in data set [2] (2.0 s), 52%; in data set [2] (4.0 s), 73%; in data set [2] (6.0 s), 89%; in data set [2] (10.0 s) it was 100%.
Take `CCOc1ccc2c(C(=O)Oc3c(C)cc(C(=O)OCc4ccccc4)cc3C)c3cc4ccccc4cc3[n+](C)c2c1` [3-EtO-LEAE-Bz, (4-Benzyloxycarbonyl-2,6-dimethyl)phenyl 3-Ethoxy-5-methyl-benz[b]acridinium-12-carboxylate Fluorosulfonate]: the emission spectrum peak result in data set [1] is “≈ 508 nm”. In addition, in data set [1], the “Emission Max” value worked out at 508 nm. Moreover, in data set [1], the Range was 470-660 nm. In addition, the “Percent signal released over different lengths of time” value in data set [2] (0.5 s) was found to be 45%; in data set [2] (1.0 s), 78%; in data set [2] (2.0 s), 85%; in data set [2] (4.0 s), 93%; in data set [2] (6.0 s), 95%; in data set [2] (10.0 s), 100%.
For `COc1ccc2c(c1)c(C(=O)Oc1c(C)cc(C(=O)OCc3ccccc3)cc1C)c1cc3ccccc3cc1[n+]2C` [2-MeO-LEAE-Bz, (4-Benzyloxycarbonyl-2,6-dimethyl)phenyl 2-Methoxy-5-methyl-benz[b]acridinium-12-carboxylate Fluorosulfonate], the emission spectrum peak result in data set [1] is “≈ 550 nm”. In addition, in data set [1], the “Emission Max” value came out at 550 nm. Also, the Range in data set [1] is given as 510-700 nm. The “Percent signal released over different lengths of time” value in data set [2] (0.5 s) is reported as 16%; in data set [2] (1.0 s), 42%; in data set [2] (2.0 s), 65%; in data set [2] (4.0 s) it was 83%; in data set [2] (6.0 s) it was 92%; in data set [2] (10.0 s), 100%.
On to `COc1ccc(N(C(=O)c2c3ccccc3[n+](C)c3cc4ccccc4cc23)S(=O)(=O)c2cccc(C(=O)OCc3ccccc3)c2)cc1` [LEAC-Bz, N-(4-Methoxyphenyl)-N-[3-(benzyloxycarbonyl)phenylsulfonyl] 5-Methyl-benz[b]acridinium-12-carboxamide Fluorosulfonate], for which the emission spectrum peak entry in data set [1] is given as “≈ 520 nm”. Moreover, the “Emission Max” value in data set [1] came to 520 nm. Besides, the Range in data set [1] was 485-670 nm. The “Percent signal released over different lengths of time” value in data set [2] (0.5 s) is given as 73%; in data set [2] (1.0 s), 82%; in data set [2] (2.0 s), 93%; in data set [2] (4.0 s), 98%; in data set [2] (6.0 s) it was 102%; in data set [2] (10.0 s) it was 100%.
On to `CC(C)c1cc(C(=O)OCc2ccccc2)cc(C(C)C)c1OC(=O)c1c2ccccc2[n+](C)c2cc3ccccc3cc12` [DIP-LEAE-Bz, (4-Benzyloxycarbonyl-2,6-diisopropyl)phenyl 5-Methyl-benz[b]acridinium-12-carboxylate Fluorosulfonate], for which, in data set [1], the emission spectrum peak result was “≈ 520 nm”. Besides, the “Emission Max” value in data set [1] was found to be 520 nm. In addition, in data set [1], the Range is given as 485-670 nm. Besides, the “Percent signal released over different lengths of time” value in data set [2] (0.5 s) came out at 4%; in data set [2] (1.0 s), 26%; in data set [2] (2.0 s), 47%; in data set [2] (4.0 s), 67%; in data set [2] (6.0 s) it was 80%; in data set [2] (10.0 s), 100%.
In the case of `COc1ccc2c(c1)c(C(=O)Oc1c(C)cc(C(=O)ON3C(=O)CCC3=O)cc1C)c1cc3ccccc3cc1[n+]2CCS(=O)(=O)[O-]` [2-MeO-NSE-LEAE-NHS, (2,6-Dimethyl-4-N-succinimidyloxycarbonyl)phenyl 2-Methoxy-5-(2-sulfoethyl)-benz[b]acridinium-12-carboxylate], the emission spectrum peak entry in data set [1] is “≈ 546 nm”. Further, in data set [1], the “Emission Max” value stood at 546 nm. Also, the Range in data set [1] was 500-700 nm. In addition, the “Percent signal released over different lengths of time” value amounted to 22% in data set [2] (0.5 s); 58% in data set [2] (1.0 s); 79% in data set [2] (2.0 s); 90% in data set [2] (4.0 s); 96% in data set [2] (6.0 s); 100% in data set [2] (10.0 s).
With `Cc1cc(C(=O)OCc2ccccc2)cc(C)c1OC(=O)c1c2ccccc2[n+](C)c2cc3ccccc3cc12` [LEAE-Bz, (4-Benzyloxycarbonyl-2,6-dimethyl)phenyl 5-Methyl-benz[b]acridinium-12-carboxylate Fluorosulfonate], the emission spectrum peak entry in data set [1] was “≈ 520 nm”. Besides, the “Emission Max” value in data set [1] is reported as 520-524 nm. Also, in data set [1], the Range is given as 490-670 nm. For the same compound, the “Percent signal released over different lengths of time” value in data set [2] (0.5 s) amounted to 27%; in data set [2] (1.0 s), 71%; in data set [2] (2.0 s), 88%; in data set [2] (4.0 s), 97%; in data set [2] (6.0 s), 98%; in data set [2] (10.0 s), 100%.
“(4-Benzyloxycarbonyl-2,6-diisopropyl)phenyl 10-Methyl-acridinium-9-carboxylate Fluorosulfonate [DIPAE-Bz, reference compound]”: the emission spectrum peak result in data set [1] was “≈ 428 nm”. Also, the “Emission Max” value in data set [1] is 426 nm. The Range in data set [1] is 405-520 nm. Moreover, the “Percent signal released over different lengths of time” value in data set [2] (0.5 s) is 14%; in data set [2] (1.0 s) it was 64%; in data set [2] (2.0 s), 89%; in data set [2] (4.0 s), 97%; in data set [2] (6.0 s) it was 98%; in data set [2] (10.0 s), 100%.
Regarding `Cc1cc(C(=O)OCc2ccccc2)cc(C)c1OC(=O)c1c2ccccc2[n+](CCCS(=O)(=O)[O-])c2cc3ccccc3cc12` [NSP-LEAE-Bz, (4-Benzyloxycarbonyl-2,6-dimethyl)phenyl 5-(3-Sulfopropyl)-benz[b]acridinium-12-carboxylate], in data set [1], the emission spectrum peak result is on record as “≈ 516 nm”. Also, the “Emission Max” value in data set [1] came to 516 nm. Also, in data set [1], the Range is 482-655 nm. Also, the “Percent signal released over different lengths of time” value in data set [2] (0.5 s) is given as 14%; in data set [2] (1.0 s), 72%; in data set [2] (2.0 s), 91%; in data set [2] (4.0 s) it was 96%; in data set [2] (6.0 s), 95%; in data set [2] (10.0 s), 100%.
